Structures are written as SMILES.

T1 sequence (Q9WMX2 1027-1207, other chains not shown): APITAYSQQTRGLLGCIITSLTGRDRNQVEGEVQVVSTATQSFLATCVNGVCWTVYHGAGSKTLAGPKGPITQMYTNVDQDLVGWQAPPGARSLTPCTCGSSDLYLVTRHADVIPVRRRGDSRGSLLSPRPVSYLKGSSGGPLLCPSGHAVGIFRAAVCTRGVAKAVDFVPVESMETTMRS

The assay concerns the target T1, HCV NS3 protease domain (Hepatitis C virus genotype 1b, UniProt Q9WMX2).
T1 construct: The first 181 amino acids of NS3 (residues 1027-1207 of the viral polyprotein); hexa-histidine (C); made in house; host or cells: E. coli BL21/DE3 pLysS
Description: biochemical. The settings on record: Enzyme Assay 1 (HCV NS3 Protease Domain Peptide Cleavage Assay) activity, apparent Ki class.
As to `CCCC1=NO[C@]2(C1)C[C@@H](C(=O)N[C@@H](CCC)C(=O)C(=O)NC1CC1)N(C(=O)[C@@H](NC(=O)OCc1ccccc1)C(C)(C)C)C2` [Compound 235], the Ki is over 500 nM. Consider `CCC[C@H](NC(=O)[C@@H]1C[C@]2(CC(c3cccc(Cl)c3)=NO2)CN1C(=O)[C@@H](NC(=O)CCn1ccnc1C)C(C)(C)C)C(=O)C(=O)NC1CC1` [Compound 237], for which the Ki fell in the range of 100 to 500 nM. Then `CCC[C@H](NC(=O)[C@@H]1C[C@]2(CC(c3cccc(Br)c3)=NO2)CN1C(=O)[C@@H](NC(=O)OCc1ccccc1)C(C)(C)C)C(=O)C(=O)NC1CC1` [Compound 239], with 100 to 500 nM; and `CCC[C@H](NC(=O)[C@@H]1C[C@]2(CC(c3ccc(C(F)(F)F)cc3)=NO2)CN1C(=O)O[C@H]1CCOC1)C(=O)C(=O)NC1CC1` [Compound 240], with over 500 nM. For `CCCC1=NO[C@]2(C1)C[C@@H](C(=O)N[C@@H](CCC)C(=O)C(=O)NC1CC1)N(C(=O)[C@@H](NC(=O)OC1CCOC1)C(C)(C)C)C2` (stereo partly drawn) [Compound 243], the Ki is over 500 nM. Then `CCC[C@H](NC(=O)[C@@H]1C[C@]2(CC(c3cccc(OC(F)(F)F)c3)=NO2)CN1C(=O)[C@@H](NC(=O)O[C@H]1CCOC1)C(C)(C)C)C(=O)C(=O)NC1CC1` [Compound 244], with 100 to 500 nM; and `CCC[C@H](NC(=O)[C@@H]1C[C@]2(CC(c3cccc(Cl)c3)=NO2)CN1C(=O)[C@@H](NC(=O)CC1=CCCCC1)C(C)(C)C)C(=O)C(=O)NC1CC1` [Compound 245], with 100 to 500 nM; and `CC(C)(C)NC(=O)N[C@H](C(=O)N1C[C@@]2(CC(c3cccc(Cl)c3)=NO2)C[C@H]1C(=O)NC(CC1CCC1)C(=O)C(N)=O)C(C)(C)C` (stereo partly drawn) [Compound 247], with under 100 nM. Then `CCC[C@H](NC(=O)[C@@H]1C[C@]2(CC(c3ccccc3)=NO2)CN1C(=O)[C@@H](NC(=O)NCC1CCCCC1)C(C)(C)C)C(=O)C(=O)NC1CC1` [Compound 249], with 100 to 500 nM; and `CCC[C@H](NC(=O)[C@@H]1C[C@]2(CC(Cc3ccccc3)=NO2)CN1C(=O)[C@@H](NC(=O)O[C@H]1CCOC1)C(C)(C)C)C(=O)C(=O)NC1CC1` [Compound 251], with over 500 nM; and `CCC[C@H](NC(=O)[C@@H]1C[C@]2(CC(c3cccc(Cl)c3)=NO2)CN1C(=O)[C@@H](NC(=O)OC(C)Cc1cccs1)C(C)(C)C)C(=O)C(=O)NC1CC1` (stereo partly drawn) [Compound 254], with 100 to 500 nM. For `CCC[C@H](NC(=O)[C@@H]1C[C@]2(CC(c3ccc(CC)o3)=NO2)CN1C(=O)[C@@H](NC(=O)CC1CCCCC1)C(C)(C)C)C(=O)C(=O)NC1CC1` [Compound 256], the Ki was 100 to 500 nM.

For the compound `CCC[C@H](NC(=O)[C@@H]1C[C@]2(CC(c3cccc(-c4ccccc4)c3)=NO2)CN1C(=O)[C@@H](NC(=O)O[C@H]1CCOC1)C(C)(C)C)C(=O)C(=O)NC1CC1` [Compound 257], the Ki lay in the range of 100 to 500 nM.

As to `CCC[C@H](NC(=O)[C@@H]1C[C@@]2(CC(c3cc(F)cc(C(F)(F)F)c3)=NO2)CN1C(=O)[C@@H](NC(=O)O[C@H]1CCOC1)C(C)(C)C)C(=O)C(=O)NC1CC1` [Compound 258], the Ki was over 500 nM.

As to `CCC[C@H](NC(=O)[C@@H]1C[C@]2(CC(c3cccc(Cl)c3)=NO2)CN1C(=O)[C@@H](NC(=O)NCc1cc(OC)c(OC)c(OC)c1)C(C)(C)C)C(=O)C(=O)NC1CC1` [Compound 259], the Ki lay in the range of 100 to 500 nM. In the case of `CCC[C@H](NC(=O)[C@@H]1C[C@]2(CC(c3cccc(Cl)c3)=NO2)CN1C(=O)[C@@H](NC(=O)OCCOC)C(C)(C)C)C(=O)C(=O)NC1CC1` [Compound 260], the Ki was 100 to 500 nM. Consider `CCC[C@H](NC(=O)[C@@H]1C[C@]2(CC(c3cccc(Cl)c3)=NO2)CN1C(=O)[C@@H](NC(=O)NC1CCN(C(=O)OCc2ccccc2)CC1)C(C)(C)C)C(=O)C(=O)NC1CC1` [Compound 261], for which the Ki lay in the range of 100 to 500 nM. For `CCC[C@H](NC(=O)[C@@H]1C[C@]2(CC(c3cccc(Cl)c3)=NO2)CN1C(=O)Oc1ccc([N+](=O)[O-])cc1)C(=O)C(=O)NC1CC1` [Compound 262], the Ki is over 500 nM.

As for `CCC[C@H](NC(=O)[C@@H]1C[C@]2(CC(c3ccc(F)c(Cl)c3)=NO2)CN1C(=O)[C@@H](NC(=O)CC1CCOCC1)C(C)(C)C)C(=O)C(=O)NC1CC1` [Compound 270], the Ki was 100 to 500 nM. Consider `CCC[C@H](NC(=O)[C@@H]1C[C@]2(CC(c3cccc(Cl)c3)=NO2)CN1C(=O)[C@@H](NC(=O)CC1CCCCC1)C(C)(C)C)C(=O)C(N)=O` [Compound 273], for which the Ki was in the range of 100 to 500 nM. In the case of `CCC[C@H](NC(=O)[C@@H]1C[C@]2(CC(c3cccc(Cl)c3)=NO2)CN1C(=O)CN1C[C@H]2CCCC[C@H]2C[C@H]1C(=O)NC(C)(C)C)C(=O)C(=O)NC1CC1` [Compound 276], the Ki was over 500 nM. Then `CCC[C@H](NC(=O)[C@@H]1C[C@]2(CC(c3ccccc3Oc3ccc(OC)cc3)=NO2)CN1C(=O)[C@@H](NC(=O)OCc1ccccc1)C(C)(C)C)C(=O)C(=O)NC1CC1` [Compound 278], with over 500 nM; and `CCC[C@H](NC(=O)[C@@H]1C[C@]2(CC(c3ccc(OC)c(Cl)c3)=NO2)CN1C(=O)[C@@H](NC(=O)CC1CCOCC1)C(C)(C)C)C(=O)C(=O)NC1CC1` [Compound 279], with 100 to 500 nM. Regarding `CCC[C@H](NC(=O)[C@@H]1C[C@]2(CC(c3ccccc3)=NO2)CN1C(=O)[C@@H](NC(=O)[C@@H](NC(=O)c1cnccn1)C1CCCCC1)C(C)(C)C)C(=O)C(=O)NC1CC1` [Compound 281], the Ki was under 100 nM. Regarding `CCC[C@H](NC(=O)[C@@H]1C[C@]2(CC(c3ccccc3)=NO2)CN1C(=O)[C@@H](NC(=O)Cc1cccnc1)C(C)(C)C)C(=O)C(=O)NC1CC1` [Compound 283], the Ki was over 500 nM. With `CCC[C@H](NC(=O)[C@@H]1C[C@]2(CC(c3cc(Cl)cc(Cl)c3)=NO2)CN1C(=O)[C@@H](NC(=O)CC1CCOCC1)C(C)(C)C)C(=O)C(=O)NC1CC1` [Compound 285], the Ki lay in the range of 100 to 500 nM. Under `CCC[C@H](NC(=O)[C@@H]1C[C@]2(CC(c3cccc(Cl)c3)=NO2)CN1C(=O)[C@@H](NC(=O)Cc1cccc(OC)c1)C(C)(C)C)C(=O)C(=O)NC1CC1` [Compound 287] stands 100 to 500 nM; under `CCC[C@H](NC(=O)[C@@H]1C[C@]2(CC(c3ccccc3)=NO2)CN1C(=O)[C@@H](NC(=O)Nc1cccc2ccccc12)C(C)(C)C)C(=O)C(=O)NC1CC1` [Compound 288], 100 to 500 nM; under `CCC[C@H](NC(=O)[C@@H]1C[C@]2(CC(c3cccc(Cl)c3)=NO2)CN1C(=O)[C@@H](NC(=O)N1CCC2(CC1)CC(=O)c1ccccc12)C(C)(C)C)C(=O)C(=O)NC1CC1` [Compound 291], over 500 nM. `CCC[C@H](NC(=O)[C@@H]1C[C@]2(CC(c3cccc(Cl)c3)=NO2)CN1C(=O)[C@@H](NC(=O)CC1CCCCC1)C(C)(C)C)C(=O)C(=O)NC1CC1` [Compound 294]: the Ki was 100 to 500 nM. With `CCC[C@H](NC(=O)[C@@H]1C[C@]2(CC(c3ccc(Cl)cc3)=NO2)CN1C(=O)[C@@H](NC(=O)CC1CCOCC1)C(C)(C)C)C(=O)C(=O)NC1CC1` [Compound 299], the Ki is over 500 nM.

On to `CCC[C@H](NC(=O)[C@@H]1C[C@]2(CC(c3ccc(F)c(Cl)c3)=NO2)CN1C(=O)[C@@H](NC(=O)O[C@H]1CCOC1)C(C)(C)C)C(=O)C(=O)NC1CC1` [Compound 301], for which the Ki lay in the range of 100 to 500 nM. For `CCC[C@H](NC(=O)[C@@H]1C[C@]2(CC(c3cccnc3)=NO2)CN1C(=O)[C@@H](NC(=O)CC1CCCCC1)C(C)(C)C)C(=O)C(=O)NC1CC1` [Compound 303], the Ki was over 500 nM. With `CCC[C@H](NC(=O)[C@@H]1C[C@]2(CC(c3cccc(Cl)c3)=NO2)CN1C(=O)[C@@H](NC(=O)OCC1CCCCO1)C(C)(C)C)C(=O)C(=O)NC1CC1` (stereo partly drawn) [Compound 308], the Ki was 100 to 500 nM. Then `CCC[C@H](NC(=O)[C@@H]1C[C@]2(CC(c3cccc(Cl)c3)=NO2)CN1C(=O)[C@@H](NC(=O)C1CCCCC1C(=O)N1CCCC1)C(C)(C)C)C(=O)C(=O)NC1CC1` (stereo partly drawn) [Compound 311], with over 500 nM; and `CCC[C@H](NC(=O)[C@@H]1C[C@]2(CC(c3cc(Cl)c(OC)cc3OC)=NO2)CN1C(=O)NCc1ccccc1)C(=O)C(=O)NC1CC1` [Compound 313], with over 500 nM. In the case of `CCC[C@H](NC(=O)[C@@H]1C[C@]2(CC(c3cccc(Cl)c3)=NO2)CN1C(=O)[C@@H](NC(=O)C(C)N1Cc2ccccc2C1=O)C(C)(C)C)C(=O)C(=O)NC1CC1` (stereo partly drawn) [Compound 317], the Ki is over 500 nM. As for `CCC[C@H](NC(=O)[C@@H]1C[C@]2(CC(c3cccc(Cl)c3)=NO2)CN1C(=O)[C@@H](NC(=O)CC(C)(C)C)C(C)(C)C)C(=O)C(=O)NC1CC1` [Compound 319], the Ki lay in the range of 100 to 500 nM. For `CCC[C@H](NC(=O)[C@@H]1C[C@]2(CC(c3ccc(Cl)c(Cl)c3)=NO2)CN1C(=O)[C@@H](NC(=O)CC1CCCCC1)C(C)(C)C)C(=O)C(=O)NC1CC1` [Compound 323], the Ki was in the range of 100 to 500 nM.

`CCC[C@H](NC(=O)[C@@H]1C[C@]2(CC(c3cccc(Cl)c3)=NO2)CN1C(=O)[C@@H](NC(=O)c1cccc([C@@H](C)C#N)c1)C(C)(C)C)C(=O)C(=O)NC1CC1` [Compound 324]: the Ki was over 500 nM.

Consider `CCC[C@H](NC(=O)[C@@H]1C[C@]2(CC(c3cc(C(F)(F)F)cc(C(F)(F)F)c3)=NO2)CN1C(=O)[C@@H](NC(=O)O[C@H]1CCOC1)C(C)(C)C)C(=O)C(=O)NC1CC1` [Compound 330], for which the Ki is 100 to 500 nM. For `CCC[C@H](NC(=O)[C@@H]1C[C@]2(CC(c3ccc(F)cc3)=NO2)CN1C(=O)[C@@H](NC(C)=O)C(C)(C)C)C(=O)C(=O)NC1CC1` [Compound 331], the Ki is over 500 nM. Take `CCC[C@H](NC(=O)[C@@H]1C[C@]2(CC(c3cccc(Cl)c3)=NO2)CN1C(=O)[C@@H](NC(=O)N[C@@H](C)c1ccccc1)C(C)(C)C)C(=O)C(=O)NC1CC1` [Compound 333]: the Ki was 100 to 500 nM. As to `CCC[C@H](NC(=O)[C@@H]1C[C@]2(CC(c3cccc(Cl)c3)=NO2)CN1C(=O)[C@@H](NC(=O)[C@@H](C)Cc1ccccc1)C(C)(C)C)C(=O)C(=O)NC1CC1` [Compound 334], the Ki was over 500 nM. As to `CCC[C@H](NC(=O)[C@@H]1C[C@]2(CC(c3ccc(OC)cc3OC)=NO2)CN1C(=O)[C@@H](NC(=O)OCc1ccccc1)C(C)(C)C)C(=O)C(=O)NC1CC1` [Compound 335], the Ki was over 500 nM.
